Assay results: patent US11180510B2, “Xanthine derivatives and uses thereof as inhibitors of bromodomains of BET proteins” (Centre national de la recherche scientifique, priority 2017, dated 2021)
Where a name gives a salt, the structure may show the parent alone.

What follows are compounds tested against BRD4(BD1) (Homo sapiens, UniProt O60885) (assay: HTRF assay, BRD4(BD1)/histone peptide interaction). Settings: HTRF; triplicates; NA = IC50 > maximal concentration of compound used.
Assay type: binding
Set-up: made in house
Protocol: HTRF assays were performed in white 384 Well Small Volume™ HiBase Polystyrene Microplates (Greiner) with a total working volume of 20 μL. Compounds were dispensed, with 100 nL per well (0.5% final DMSO), from a concentration stock of 10 mM in 100% DMSO and with serial DMSO dilutions, using an Echo® 550 robot from the Access Labcyte platform (Labcyte) and based on the transfer of liquid by acoustic wave. Then, 19.5 μL of buffer is added, using a Multidrop Combi (Thermo Fisher Scientific). […] All HTRF reagents (donor and acceptor) were purchased from CisBio Bioassays and reconstituted according to the supplier protocols. The peptide was purchased from Genic Bio Synthetic. The BRD4(1) protein was produced and purified in the laboratory.
Percentage of inhibition was calculated using the following equation: % inhibition=[(compound signal)−(min signal)]/[(max signal)−(min signal)]*100, where ‘max signal’ is the signal ratio with the compound vehicle alone (DMSO) and ‘min signal’ the signal ratio without peptide.
Selectivity profiles of bromodomain inhibitors were performed as described in HTRF screen section. […] HTRF detection reagents (EPIgeneous™ Binding Domain kits) were purchased from Cisbio Bioassays and used according to supplier's protocol. GST tagged bromodomain proteins were purchased from BPS Bioscience and histone peptide from Genic Bio Synthetic.

IC50 [µM] | SMILES
0.687 | CCn1cnc2c1c(=O)[nH]c(=O)n2Cc1ccc(CNS(=O)(=O)c2ccc(C)cc2)cc1 [Compound 28c]
2.8 | CCn1cnc2c1c(=O)[nH]c(=O)n2Cc1ccc(CNC(=O)C2CCCC(O)C2)cc1 (stereo not drawn) [Compound 35a]
> 50 | CCn1cnc2c1c(=O)[nH]c(=O)n2Cc1ccc(CNC(=O)[C@@H]2CCCNC2)cc1 [Compound 41c]
32 | CCn1cnc2c1c(=O)[nH]c(=O)n2Cc1ccc(CNC(=O)C2CCCC(N)C2)cc1 (stereo not drawn) [Compound 42b]
4.3 | CCn1cnc2c1c(=O)[nH]c(=O)n2Cc1ccc(CNS(C)(=O)=O)cc1 [Compound 20b]
3.6 | CCCS(=O)(=O)NCc1ccc(Cn2c(=O)[nH]c(=O)c3c2ncn3CC)cc1 [Compound 20c]
2.2 | CCn1cnc2c1c(=O)[nH]c(=O)n2Cc1ccc(CNC(=O)CCC(C)C)cc1 [Compound 36a]
32 | CCC[C@@H](N)C(=O)NCc1ccc(Cn2c(=O)[nH]c(=O)c3c2ncn3CC)cc1 [Compound 40b]
0.729 | CCn1cnc2c1c(=O)[nH]c(=O)n2Cc1ccc(CNS(=O)(=O)c2ccc(N)cc2)cc1 [Compound 28b]
1.7 | CCn1cnc2c1c(=O)[nH]c(=O)n2Cc1ccc(CNS(=O)(=O)c2cc(C)ns2)cc1 [Compound 24c]
27 | CCn1cnc2c1c(=O)[nH]c(=O)n2Cc1ccc(CN)cc1 [Compound 20a, 3-(4-(aminomethyl)benzyl)-7-ethyl-1H-purine-2,6(3H,7H)-dione trifluoroacetic salt]
1.6 | CCn1cnc2c1c(=O)[nH]c(=O)n2Cc1ccc(CNS(=O)(=O)c2ccccc2)cc1 [Compound 29a]
1.7 | CCn1cnc2c1c(=O)[nH]c(=O)n2Cc1ccc(CNS(=O)(=O)c2cn(C)c(C)n2)cc1 [Compound 23b]
4.5 | CCCn1cc(C(=O)NCc2ccc(Cn3c(=O)[nH]c(=O)c4c3ncn4CC)cc2)cn1 [Compound 33c, N-(4-((7-ethyl-2,6-dioxo-1H-purin-3(2H,6H,7H)-yl)methyl)benzyl)-1-propyl-1H-pyrazole-4-carboxamide]
> 50 | CCC[C@H](N)C(=O)NCc1ccc(Cn2c(=O)[nH]c(=O)c3c2ncn3CC)cc1 [Compound 42a]
2.9 | CCn1cnc2c1c(=O)[nH]c(=O)n2Cc1ccc(CNS(=O)(=O)CC(C)C)cc1 [Compound 21a]
4.7 | CCn1cnc2c1c(=O)[nH]c(=O)n2Cc1ccc(CNC(=O)CCC2CC2)cc1 [Compound 33b]
18 | CCn1cnc2c1c(=O)[nH]c(=O)n2Cc1ccc(CNC(=O)C(N)c2ccc(C)cc2)cc1 (stereo not drawn) [Compound 40a]
3.5 | CCn1cnc2c1c(=O)[nH]c(=O)n2Cc1ccc(CNS(=O)(=O)c2cn(C)cn2)cc1 [Compound 23a]
5.2 | CCn1cnc2c1c(=O)[nH]c(=O)n2Cc1ccc(CNS(=O)(=O)CCOC)cc1 [Compound 21b]
> 50 | CCn1cnc2c1c(=O)[nH]c(=O)n2Cc1ccc(CNC(=O)[C@@H](N)CC2CC2)cc1 [Compound 41b]

Further lines, the compound ahead of its results:

SMILES | IC50 [µM]
CCn1cnc2c1c(=O)[nH]c(=O)n2Cc1ccc(CNC(=O)[C@@H]2C[C@@H](c3ccccc3)CN2C(=O)OC(C)(C)C)cc1 [Compound 38a] | 1.7
CCn1cnc2c1c(=O)[nH]c(=O)n2Cc1ccc(CNS(=O)(=O)c2ccc(-c3coc(C)n3)cc2)cc1 [Compound 30a] | 0.6
O=C1CCCc2cc(S(=O)(=O)NCc3ccc(C(=O)NCc4cccc(O)c4)cc3)ccc2N1 [Compound 15b] | 46
CCn1cnc2c1c(=O)[nH]c(=O)n2Cc1ccc(CNC(=O)c2ccc(Oc3ccccc3)cc2)cc1 [Compound 37a] | 2
CCn1cnc2c1c(=O)[nH]c(=O)n2Cc1ccc(CNS(=O)(=O)c2cccc(NC(C)=O)c2)cc1 [Compound 31b] | 0.723
CCn1cnc2c1c(=O)[nH]c(=O)n2Cc1ccc(CNC(=O)[C@@H]2CCCN(C(=O)OC(C)(C)C)C2)cc1 [Compound 39a] | 6.8
Cc1noc(C)c1CNC(=O)C1CCC(CNS(=O)(=O)c2ccc3c(c2)CCCC(=O)N3)CC1 (stereo not drawn) [Compound 8a] | 22
CCn1cnc2c1c(=O)[nH]c(=O)n2Cc1ccc(CNC(=O)C(NC(=O)OC(C)(C)C)c2ccc(C)cc2)cc1 (stereo not drawn) [Compound 37b] | 4.9
O=C1CCCc2cc(S(=O)(=O)NCc3ccc(C(=O)NCc4cccnc4)cc3)ccc2N1 [Compound 14b] | > 25
O=C1CCCc2cc(S(=O)(=O)NCC3CCC(C(=O)NCc4ccncc4)CC3)ccc2N1 (stereo not drawn) [Compound 6c] | 30
CCn1cnc2c1c(=O)[nH]c(=O)n2Cc1ccc(CNS(=O)(=O)CCCN2CCOCC2)cc1 [Compound 22b] | 7.5
CCn1cnc2c1c(=O)[nH]c(=O)n2Cc1ccc(CNS(=O)(=O)c2ccc([N+](=O)[O-])cc2)cc1 [Compound 28a] | 1.3
CCn1cnc2c1c(=O)[nH]c(=O)n2Cc1ccc(CNS(=O)(=O)c2ccc3oncc3c2)cc1 [Compound 26a] | 2.2
CCn1cnc2c1c(=O)[nH]c(=O)n2Cc1ccc(CNS(=O)(=O)CCc2ccccc2)cc1 [Compound 22c] | 1.4
CCn1cnc2c1c(=O)[nH]c(=O)n2Cc1ccc(CNC(=O)[C@@H]2C[C@@H](c3ccccc3)CN2)cc1 [Compound 40c] | 13
CCc1nc(S(=O)(=O)NCc2ccc(Cn3c(=O)[nH]c(=O)c4c3ncn4CC)cc2)cn1C [Compound 23c] | 1.3
CS(=O)(=O)NCC1CCC(C(=O)NCCc2cccs2)CC1 (stereo not drawn) [Compound 8c] | 18
CCn1cnc2c1c(=O)[nH]c(=O)n2Cc1ccc(CNS(=O)(=O)CCN2CCOCC2)cc1 [Compound 22a] | 4.5
CCn1cnc2c1c(=O)[nH]c(=O)n2Cc1ccc(CNC(=O)C2CCC(CO)CC2)cc1 (stereo not drawn) [Compound 35b] | 7
CCn1cnc2c1c(=O)[nH]c(=O)n2Cc1ccc(CNS(=O)(=O)c2ccc3c(c2)CCN3C(C)=O)cc1 [Compound 26c] | 0.817
O=C1CCCc2cc(S(=O)(=O)N3CCC(C(=O)NCc4cccs4)CC3)ccc2N1 [Compound 11b] | > 50
CCn1cnc2c1c(=O)[nH]c(=O)n2Cc1ccc(CNS(=O)(=O)c2cc(-c3ccno3)ccc2C)cc1 [Compound 27a] | 1.3
CCn1cnc2c1c(=O)[nH]c(=O)n2Cc1ccc(CNS(=O)(=O)c2ccc(OC)cc2)cc1 [Compound 30b] | 0.687
CCC[C@H](NC(=O)OC(C)(C)C)C(=O)NCc1ccc(Cn2c(=O)[nH]c(=O)c3c2ncn3CC)cc1 [Compound 39b] | 2.3
CCn1cnc2c1c(=O)[nH]c(=O)n2Cc1ccc(CNC(=O)c2ccc(N3CCc4ccccc4C3)cc2)cc1 [Compound 34c] | 0.749
CCn1cnc2c1c(=O)[nH]c(=O)n2Cc1ccc(CNC(=O)[C@@H]2CCC[C@H](NC(=O)OC(C)(C)C)C2)cc1 [Compound 39c] | 1.5
COC(=O)C1CCC(CNS(=O)(=O)c2ccc3c(c2)CCCC(=O)N3)CC1 (stereo not drawn) [Compound 1c, Methyl 4-((2-oxo-2,3,4,5-tetrahydro-1H-benzo[b]azepine-7-sulfonamido)methyl)cyclohexanecarboxylate] | 53
CCn1cnc2c1c(=O)[nH]c(=O)n2Cc1ccc(CNS(=O)(=O)c2ccc3c(c2)n(C)c(=O)n3C)cc1 [Compound 26b] | 0.769
CCCC(=O)N1CCC(C(=O)NCc2ccc(Cn3c(=O)[nH]c(=O)c4c3ncn4CC)cc2)CC1 [Compound 34b] | 2.8
CCn1cnc2c1c(=O)[nH]c(=O)n2Cc1ccc(CNC(=O)[C@H](CC2CC2)NC(=O)OC(C)(C)C)cc1 [Compound 38c] | 5.5
